{"source": "patent US4645770A", "about": "“Agent for treating Parkinson's disease or Parkinsonism” (priority 1985, dated 1987)", "key": {"[1]": {"test_system": "presynaptic dopaminergic receptors", "settings": "Anden et al., 1983; cited from earlier work"}, "[2]": {"test_system": "denervated post-synaptic DA receptors", "assay": "Contralateral rotation on the 6-OHDA model", "format": "in vivo, rat"}, "[3]": {"test_system": "MPTP Parkinsonism syndrome", "assay": "MPTP model of Parkinson's disease in Rhesus monkeys", "format": "in vivo", "from_the_text": "The irreversible neurological syndrome triggered in monkeys and humans by MPTP largely resembles idiopathic Parkinson's disease in its clinical, pathological, biochemical and pharmacological features (Markey et al., Nature 311, 464 (1984)). The reason for this strong similarity is the fact that MPTP selectively destroys the small group of dopaminergic nerve cells in the substantia nigra of the brain which are also destroyed by degenerative processes in naturally occurring Parkinson's disease. There is even some discussion to the effect that idiopathic Parkinson's disease might be caused by MPTP or a similar chemical compound formed in the organism (Snyder, S. H., Nature 311, 514 (1984)). Possibly as a result of the specific metabolism of MPTP, the clinical features of the MPTP Parkinsonism syndrome have been thusfar only been detected in monkeys and man. The MPTP model produced in Rhesus monkeys is therefore exceptionally suitable for testing the effect of anti-Parkinson's drugs.\nVoluntary movements of the hindquarters and extremities could not generally be initiated even by extreme and painful stimulation.\nAfter the intramuscular administration of B-HT 920 (50-100 mcg/kg) the first voluntary movements occurred at a time interval of 5 to 10 minutes, followed in the next 10 to 30 minutes by a gradual, extensive normalization of motor function. The animals were capable of taking food. They maintained thier normal posture within their cages and also behaved normally in terms of vigilance and species-specific behavior. […] There was no sedation."}, "[4]": {"test_system": "\"naive\" rat", "assay": "Spontaneous motor activity: ambulatory movements (exploratory activity), Opto-Varimex 3", "format": "in vivo", "settings": "for Contacts broken (exploratory activity/5 min.): first 5 minutes after injection", "method": "(§1) (A) Spontaneous motor activity in the \"naive\" rat\n(§2) Two aspects of motor function were recorded with a known \"Opto-Varimex 3\":\n(a) \"ambulatory\" movements in the first 5 minutes after s.c. injection of B-HT 920; this phase of locomotor function corresponds to the so-called \"exploratory activity\" of rats in a new environment;\n(§3) The following doses of B-HT 920 were tested: 0.02, 0.2, 2.0 mg/kg s.c.. As a comparison apomorphine was tested in a dosage of 0.1 mg/kg s.c."}, "[5]": {"test_system": "\"naive\" rat", "assay": "Spontaneous motor activity: non-ambulatory (stereotypical) movements, Opto-Varimex 3", "format": "in vivo", "settings": "for Stereotypical movements (Movements/15 min.): from 55 minutes after injection", "method": "as §1, §2\n(b) \"non-ambulatory\" movements which are made up essentially of stereotypical movements, which began to be recorded 45 minutes after the animals had been put into the recording cage (and 55 minutes after s.c. injection).\nas §3"}, "[6]": {"test_system": "postsynaptic dopamine (DA) receptors", "assay": "Ipsilateral rotation in the ibotenic acid model", "format": "in vivo, rat"}, "[7]": {"assay": "Oral acute toxicity (LD50) in the mouse", "settings": "in vivo"}}, "note": "Counter-ions that a name gives are not always drawn.", "data": [{"molecule": "C=CCN1CCc2nc(N)sc2CC1", "note": "[B-HT 920, 2-amino-6-allyl-5,6,7,8-tetrahydro-4H-thiazole-[4,5-d]azepine dihydrochloride]", "values": [{"measurement": "Agonist effect on presynaptic dopaminergic receptors", "setting": "[1]", "result": "agonist with a selective effect on presynaptic dopaminergic receptors"}, {"measurement": "Contralateral rotations up to 6 hours", "setting": "[2]; 0.02 mg/kg", "result": 168, "unit": "Contralateral rotations"}, {"measurement": "Contralateral rotations up to 6 hours", "setting": "[2]; 0.05 mg/kg", "result": 582, "unit": "Contralateral rotations"}, {"measurement": "Contralateral rotations up to 6 hours", "setting": "[2]; 0.5 mg/kg", "result": 1282, "unit": "Contralateral rotations"}, {"measurement": "Contralateral rotations up to 6 hours", "setting": "[2]; 1.0 mg/kg", "result": 1442, "unit": "Contralateral rotations"}, {"measurement": "Activity on denervated receptors", "setting": "[2]; by contrast with its weak effect on normal DA receptors", "result": "exceptionally strong activity on denervated receptors"}, {"measurement": "Behavior of the animals after administration", "setting": "[3]; 50-100 mcg/kg intramuscular", "result": "The animals were capable of taking food. They maintained thier normal posture within their cages and also behaved normally in terms of vigilance and species-specific behavior"}, {"measurement": "Residual symptoms recorded", "setting": "[3]; 50-100 mcg/kg intramuscular", "result": "an occasional, transient, slight resting tremor and a reduction in brute strength"}, {"measurement": "Sedation", "setting": "[3]; 50-100 mcg/kg intramuscular", "result": "no sedation"}, {"measurement": "Time after which the effect diminished", "setting": "[3]; 50-100 mcg/kg intramuscular", "result": "about 3 hours"}, {"measurement": "Blood supply to the skin", "setting": "[3]; 50-100 mcg/kg intramuscular, compared with the state before administration", "result": "appeared to be increased"}, {"measurement": "Effect of fresh administration on clinical pathological symptoms", "setting": "[3]; after reversion to the Parkinson's symptoms", "result": "improvement or substantial removal of the clinical pathological symptoms"}, {"measurement": "Side effects", "setting": "[3]; at the dosages used", "result": "No side effects were discovered"}, {"measurement": "Contacts broken (exploratory activity/5 min.)", "setting": "[4]; 0.02 mg/kg s.c.", "result": "380 /5 min."}, {"measurement": "Contacts broken (exploratory activity/5 min.)", "setting": "[4]; 0.2 mg/kg s.c.", "result": "150 /5 min."}, {"measurement": "Inhibitory effect on the exploratory activity", "setting": "[4]; 0.2 mg/kg, compared with 0.1 mg/kg of apomorphine", "result": "almost maximum"}, {"measurement": "Contacts broken (exploratory activity/5 min.)", "setting": "[4]; 2.0 mg/kg s.c.", "result": "130 /5 min."}, {"measurement": "Stereotypical movements (Movements/15 min.)", "setting": "[5]; 0.2 mg/kg s.c.", "result": 370, "unit": "Movements/15 min."}, {"measurement": "Stereotypical movements (Movements/15 min.)", "setting": "[5]; 2.0 mg/kg s.c.", "result": 310, "unit": "Movements/15 min."}, {"measurement": "Stereotypical movements (Movements/15 min.)", "setting": "[5]; 4.0 mg/kg s.c.", "result": 340, "unit": "Movements/15 min."}, {"measurement": "Increase in the number of stereotypical movements", "setting": "[5]; any of the doses tested", "result": "did not lead to an increase in the number of stereotypical movements"}, {"measurement": "Ipsilateral rotations/duration of activity", "setting": "[6]; 0.2 mg/kg s.c., up to 6 hours", "result": "37 Ipsilateral rotations/duration of activity"}, {"measurement": "Ipsilateral rotations/duration of activity", "setting": "[6]; 0.5 mg/kg s.c., up to 6 hours", "result": "54 Ipsilateral rotations/duration of activity"}, {"measurement": "Ipsilateral rotations/duration of activity", "setting": "[6]; 1.0 mg/kg s.c., up to 6 hours", "result": "102 Ipsilateral rotations/duration of activity"}, {"measurement": "Ipsilateral rotations/duration of activity", "setting": "[6]; 2.0 mg/kg s.c., up to 6 hours", "result": "96 Ipsilateral rotations/duration of activity"}, {"measurement": "Activity on the normally sensitive DA receptor (in words)", "setting": "[6]; compared with apomorphine", "result": "only a weak activity"}, {"measurement": "Post-synaptic DA-agonistic activity relative to apomorphine on the normally sensitive DA receptor", "setting": "[6]; fraction of the activity of apomorphine", "result": "about one eighth"}]}, {"molecule": "C=CCN1CCc2nc(N)sc2CC1", "note": "[Compound A, 2-amino-6-allyl-5,6,7,8-tetrahydro-4H-thiazolo[4,5-d]azepine]", "values": [{"measurement": "LD50", "setting": "[7]", "result": 455, "unit": "mg/kg"}]}, {"molecule": "CN1CCc2cccc3c2[C@H]1Cc1ccc(O)c(O)c1-3", "note": "[apomorphine, reference compound]", "values": [{"measurement": "Contralateral rotations up to 6 hours", "setting": "[2]; 0.05 mg/kg", "result": 557, "unit": "Contralateral rotations"}, {"measurement": "Contacts broken (exploratory activity/5 min.)", "setting": "[4]; 0.1 mg/kg s.c.", "result": "150 /5 min."}, {"measurement": "Stereotypical movements (Movements/15 min.)", "setting": "[5]; 4.0 mg/kg s.c.", "result": 650, "unit": "Movements/15 min."}, {"measurement": "Ipsilateral rotations/duration of activity", "setting": "[6]; 0.5 mg/kg s.c., up to 3 hours", "result": "265 Ipsilateral rotations/duration of activity"}, {"measurement": "Ipsilateral rotations/duration of activity", "setting": "[6]; 1.0 mg/kg s.c., up to 3 hours", "result": "436 Ipsilateral rotations/duration of activity"}, {"measurement": "Ipsilateral rotations/duration of activity", "setting": "[6]; 10.0 mg/kg s.c., up to 3 hours", "result": "880 Ipsilateral rotations/duration of activity"}]}]}
